# Reference: publication PMC6386767, “Characterization of recombinant fructose-1,6-bisphosphatase gene mutations: evidence of inhibition/activation of FBPase protein by gene mutation” (Bioscience Reports, 2019)
# Substitutions are numbered along the chain they refer to.
# Experiments:
# Type in all cases: biochemical
# [1] = molecular target: T1, pig kidney FBPase Y113A (Sus scrofa, UniProt P00636, Y114A); assay: Malachite Green kinetic assay, Y113A mutant; conditions: for IC50: FBP substrate 10 to 50 µM
# T1 construct: His6 (C); made in house; host or cells: Escherichia coli BL21 (DE3)
# T1 sequence (P00636 1-338 Y114A): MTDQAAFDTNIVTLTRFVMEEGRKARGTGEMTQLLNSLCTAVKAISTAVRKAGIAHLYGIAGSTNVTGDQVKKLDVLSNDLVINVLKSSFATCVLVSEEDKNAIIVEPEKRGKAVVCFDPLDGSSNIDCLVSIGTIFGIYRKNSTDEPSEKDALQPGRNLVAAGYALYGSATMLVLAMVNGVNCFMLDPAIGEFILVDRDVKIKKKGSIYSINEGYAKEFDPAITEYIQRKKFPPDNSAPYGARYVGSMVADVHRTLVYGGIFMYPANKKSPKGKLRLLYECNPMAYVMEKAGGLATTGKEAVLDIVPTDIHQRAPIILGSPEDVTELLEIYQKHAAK
# Description: (§1) For the kinetic assay, a standard curve was obtained from an ammonium molybdate Malachite Green inorganic phosphate assay (OD660 nm). The purified FBPase protein was dialyzed ×3 in 50 mM Tris buffer at pH 7.5 at 4°C. For enzyme concentration, absorbency values were recorded for all five mutant proteins using spectrophotometer readings at OD280 nm. To quantitate enzyme concentration, the enzymes were calculated based on the quantity of micrograms per microliter (µg/µl) present. Final concentration of WT and mutant enzymes was between 2.5 and 5.0 µg/µl. Using a colorimetric assay as described below, specific activity (SA) was determined. At last, all kinetic and binding assays described below were performed in 50 mM Tris pH 7.5.
# (§2) Kinetic assays were performed for WT and mutant enzymes to identify functional differences between the WT enzyme and the mutants. […] Readings recorded at OD660 nm for each enzyme were applied to the standard curve equation. Micromoles of inorganic phosphate were calculated to determine the SA of mutant enzymes.
# (§3) For each clone, the kinetic assay was performed in duplicates of triplicates. Malachite Geen was used to detect inorganic phosphate. Two separate clones were processed independently of the same mutant. All kinetic data were fit to symmetric sigmoidal curve using Origin software based on methods previously described [[27–29]]. More specifically, for kinetic parameters established via curve fitting (shown in Tables 1–3; and in Figure 5A,B), the equation y = d + (a − d)/1 + (x/c)^b was used where ‘x’ is represented by apparent Michelis constant (Km) when y = Vmax. […] P-values were significant at <0.001 and represent a comparison with the WT enzyme.
# [2] = molecular target: T2, pig kidney FBPase M177A (Sus scrofa, UniProt P00636, M178A); assay: Malachite Green kinetic assay, M177A mutant; conditions: for IC50: FBP substrate 10 to 50 µM
# T2 construct: His6 (C); made in house; host or cells: Escherichia coli BL21 (DE3)
# T2 sequence (P00636 1-338 M178A): T1 sequence (P00636 1-338 Y114A) with A114Y, M178A
# Description: as §1, §2, §3
# [3] = molecular target: T3, pig kidney FBPase M248D (Sus scrofa, UniProt P00636, M249D); assay: Malachite Green kinetic assay, M248D mutant; conditions: for IC50: FBP substrate 10 to 50 µM
# T3 construct: His6 (C); made in house; host or cells: Escherichia coli BL21 (DE3)
# T3 sequence (P00636 1-338 M249D): T1 sequence (P00636 1-338 Y114A) with A114Y, M249D
# Description: as §1, §2, §3
# [4] = molecular target: T4, pig kidney FBPase Y164A (Sus scrofa, UniProt P00636, Y165A); assay: Malachite Green kinetic assay, Y164A mutant; conditions: enzyme Y164A; for IC50: FBP substrate 10 to 50 µM
# T4 construct: His6 (C); made in house; host or cells: Escherichia coli BL21 (DE3)
# T4 sequence (P00636 1-338 Y165A): T1 sequence (P00636 1-338 Y114A) with A114Y, Y165A
# Description: as §1, §2, §3
# [5] = molecular target: T5, pig kidney FBPase K112A (Sus scrofa, UniProt P00636, K113A); assay: Malachite Green kinetic assay, K112A mutant; conditions: for IC50: FBP substrate 10 to 50 µM
# T5 construct: His6 (C); made in house; host or cells: Escherichia coli BL21 (DE3)
# T5 sequence (P00636 1-338 K113A): T1 sequence (P00636 1-338 Y114A) with K113A, A114Y
# Description: as §1, §2, §3
smiles,measurement,setting,value
Nc1ncnc2c1ncn2[C@@H]1O[C@H](COP(=O)(O)O)[C@@H](O)[C@H]1O [AMP],IC50,[1]; enzyme Y113A_1,48.6 µM
same,IC50,[1]; enzyme Y113A_2,55.3 µM
same,AMP Hill coefficient,[2]; enzyme M177A_1,2.6 (± 0.2)
same,IC50,[2]; enzyme M177A_1,3.5 µM
same,AMP Hill coefficient,[2]; enzyme M177A_2 (second clone),2.8 (± 0.1)
same,IC50,[2]; enzyme M177A_2,3.9 µM
same,AMP Hill coefficient,[3]; enzyme M248D,2.5 (± 0.2)
same,IC50,[3]; enzyme M248D,7.2 µM
same,AMP Hill coefficient,[4],2.8 (± 0.2)
same,IC50,[4],2.5 µM
same,IC50,[5]; enzyme K112A_1,68.5 µM
same,IC50,[5]; enzyme K112A_2,52.3 µM
"O=P(O)(O)OC[C@H]1O[C@@](CO)(OP(=O)(O)O)[C@@H](O)[C@@H]1O [F2,6-BP, fructose-2,6-bisphosphate]",Ki,[1]; enzyme Y113A,0.25 µM
same,IC50,[1]; enzyme Y113A_1,1.8 µM
same,IC50,[1]; enzyme Y113A_2,1.7 µM
same,Ki,[2]; enzyme M177A,0.17 µM
same,IC50,[2]; enzyme M177A_1,0.75 µM
same,IC50,[2]; enzyme M177A_2,0.62 µM
same,Ki,[3]; enzyme M248D,1.5 µM
same,IC50,[3]; enzyme M248D,10.5 µM
same,Ki,[4],0.15 µM
same,IC50,[4],0.95 µM
same,Ki,[5]; enzyme K112A,0.24 µM
same,IC50,[5]; enzyme K112A_1,1.5 µM
same,IC50,[5]; enzyme K112A_2,1.5 µM
"[Mg+2] [Mg^2+, magnesium]",Ka,"[1]; enzyme Y113A, association (binding) constant from saturation curve",0.48 (± 0.16) mM
same,Hill coefficient,"[1]; enzyme Y113A, for magnesium",2.00 (± 0.19)
same,Ka,"[2]; enzyme M177A, association (binding) constant from saturation curve",0.49 (± 0.18) mM
same,Hill coefficient,"[2]; enzyme M177A, for magnesium",2.05 (± 0.12)
same,decrease in Ka for magnesium binding,[3]; enzyme M248D vs WT,6.25
same,Ka,"[3]; enzyme M248D, association (binding) constant from saturation curve",0.08 (± 0.02) mM
same,Hill coefficient,"[3]; enzyme M248D, for magnesium",2.20 (± 0.17)
same,Ka,[4]; association (binding) constant from saturation curve,0.50 (± 0.15) mM
same,Hill coefficient,[4]; for magnesium,2.15 (± 0.12)
same,Ka,"[5]; enzyme K112A, association (binding) constant from saturation curve",0.51 (± 0.15) mM
same,Hill coefficient,"[5]; enzyme K112A, for magnesium",1.98 (± 0.15)
